Laboratory results: ChEMBL document CHEMBL5385971, “Identification of novel phenylalanine derivatives bearing a hydroxamic acid moiety as potent quorum sensing inhibitors” (RSC Med Chem, 2024)
The source made the active and inactive calls. No cut-off for these calls is given here.

How the values were obtained:
[1] = Inhibition of quorum sensing system in Pseudomonas aeruginosa transfected with lasB-gfp incubated for 20 hrs by fluorescence based multilabel plate reader analysis
Pseudomonas aeruginosa [2] = assay: Growth inhibition of Pseudomonas aeruginosa transfected with lasB-gfp; type: functional, organism-based
Pseudomonas aeruginosa [3] = assay: Antibiofilm activity against Pseudomonas aeruginosa PA14 assessed as inhibition of biofilm biomass at 30 uM incubated for 48 hrs by crystal violet staining based analysis relative to control; type: functional
[4] = test system: Chromobacterium violaceum; assay: Inhibition of Chromobacterium violaceum ATCC 31532 quorum sensing receptor CviR at 30 uM incubated for 24 hrs by absorbance based microplate reader analysis relative to control
[5] = Potency index, ratio of 4NPO IC50 to test compound IC50 for inhibition of quorum sensing system in Pseudomonas aeruginosa transfected with lasB-gfp incubated for 20 hrs by fluorescence based multilabel plate reader analysis
[6] = test system: Chromobacterium violaceum; assay: Inhibition of Chromobacterium violaceum ATCC 31532 quorum sensing receptor CviR assessed as fold change at 30 uM incubated for 24 hrs by absorbance based microplate reader analysis relative to 4NPO

Row | SMILES | IC50 [1] | inhibition [4] | Ratio IC50 [5] | fold change (FC) [6] | growth inhibition (GI) (Pseudomonas aeruginosa [2]) | inhibition at 30 µM (Pseudomonas aeruginosa [3])
1 | O=C(Nc1ccc(Cl)cc1)c1ccc(C(=O)N[C@@H](Cc2ccccc2)C(=O)NO)cc1 | > 100 µM | < 1% | – | – | inactive | < 1%
2 | O=C(Nc1ccccc1)Nc1ccc(C(=O)N[C@@H](Cc2ccccc2)C(=O)NO)cc1 | > 100 µM | < 1% | – | – | inactive | < 1%
3 | O=C(N[C@@H](Cc1ccccc1)C(=O)NO)c1ccc(Cl)c(Cl)c1 | > 100 µM | 35% | – | – | inactive | < 1%
4 | O=C(Nc1ccccc1)c1ccc(C(=O)N[C@@H](Cc2ccccc2)C(=O)NO)cc1 | 92.3 µM | < 1% | – | – | inactive | 11%

Compounds with a lower IC50 [1], results first:

Row | IC50 [1] | inhibition [4] | Ratio IC50 [5] | fold change (FC) [6] | SMILES | growth inhibition (GI) (Pseudomonas aeruginosa [2]) | inhibition at 30 µM (Pseudomonas aeruginosa [3])
5 | 7.12 µM | 79% | 4 | 1.5 | Cc1ccc(S(=O)(=O)Nc2ccc(C(=O)N[C@@H](Cc3ccccc3)C(=O)NO)cc2)cc1 | inactive | 75%
6 | 83.5 µM | 11% | – | – | O=C(N[C@@H](Cc1ccccc1)C(=O)NO)c1ccc(COc2ccccc2)cc1 | inactive | 20%
7 | 50.2 µM | < 1% | – | – | O=C(N[C@@H](Cc1ccccc1)C(=O)NO)c1ccc2ccccc2n1 | inactive | < 1%
8 | 9.44 µM | 65% | – | – | O=C(N[C@@H](Cc1ccccc1)C(=O)NO)c1ccc(C2CCCCC2)cc1 | inactive | 55%
9 | 10 µM | 58% | – | – | O=C(N[C@@H](Cc1ccccc1)C(=O)NO)c1cc(Cl)ccc1F | inactive | 40%
